Laboratory results published in patent US20260250320A1, “LIPIDATED PEPTIDE INHIBITORS OF INTERLEUKIN-23 RECEPTOR” (Janssen Pharmaceutica NV, priority 2023, published 2026).
*1 amine or outer side, *2 acyl side, *3 side chain or, on linkers, in order; H or OH if unused. Where a SMILES comes first, the peptide text is derived from it. Bridges are numbered along the chain shown (N, C = ends). Side-chain parts run from the residue outwards. [ ]: non-standard residue; d: D form. The star is where a group is joined. PEG12 = NCCOCCOCCOCCOCCOCCOCCOCCOCCOCCOCCOCCOCCC(=O)O; Trp(7-Me) = Cc1cccc2c(C[C@H](N)C(=O)O)c[nH]c12; C20 diacid = O=C(O)CCCCCCCCCCCCCCCCCCC(=O)*; C18 diacid = O=C(O)CCCCCCCCCCCCCCCCC(=O)*; C16 diacid = O=C(O)CCCCCCCCCCCCCCC(=O)*; γGlu = O=C(O)[C@H](CCC(=O)[*:2])N[*:1]; 2Nal = N[C@@H](Cc1ccc2ccccc2c1)C(=O)O; AEF = NCCOc1ccc(C[C@H](N)C(=O)O)cc1; X2 = C[N+](C)(C)C[C@@H](CC(=O)O)N*; 3Pal = N[C@@H](Cc1cccnc1)C(=O)O; Pen = CC(C)(S)[C@H](N)C(=O)O; Suc = O=C(CCC(=O)[*:2])[*:1]; Thp = NC1(C(=O)O)CCOCC1; X1 = C[N+](C)(C)CCCCC*; AEEA = NCCOCCOCC(=O)O; Sar = CNCC(=O)O

Experiments:
[1] = system: IL-23-stimulated phosphorylated STAT3 in peripheral blood mononuclear cells (PBMCs); assay: PBMC pSTAT3 Assay; format: cell-based; conditions: PBMCs from healthy donors; 30 min preincubation with peptide; IL-23 5 ng/mL for 30 min; phospho-STAT3 by MSD
Summary of the method: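 Phospho-STAT3 quantified by Meso Scale assay in lysates of PBMCs exposed to IL-23 (5 ng/mL, 30 min, 37 °C) after 30 min peptide pretreatment. Cells were cryopreserved donor PBMCs activated 4 days with anti-CD3 plus IL-1β (100 ng/mL) and starved ~4 h; IC50 reported.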

IL-23R = target: T1, IL-23R (Homo sapiens, UniProt Q5VWK5); assay: IL23R Reporter Assay; format: cell-based; conditions: HEK293 cells containing IL-23R, IL-12Rβ1 and STAT-inducible firefly luciferase reporter; 10 ng/mL IL-23 (EC90); 5 h
T1 construct: HEK293 cells containing IL-23R, IL-12Rβ1 and a firefly luciferase reporter gene driven by a STAT-inducible promoter (Promega); host or cells: HEK293
T1 sequence (Q5VWK5 24-629): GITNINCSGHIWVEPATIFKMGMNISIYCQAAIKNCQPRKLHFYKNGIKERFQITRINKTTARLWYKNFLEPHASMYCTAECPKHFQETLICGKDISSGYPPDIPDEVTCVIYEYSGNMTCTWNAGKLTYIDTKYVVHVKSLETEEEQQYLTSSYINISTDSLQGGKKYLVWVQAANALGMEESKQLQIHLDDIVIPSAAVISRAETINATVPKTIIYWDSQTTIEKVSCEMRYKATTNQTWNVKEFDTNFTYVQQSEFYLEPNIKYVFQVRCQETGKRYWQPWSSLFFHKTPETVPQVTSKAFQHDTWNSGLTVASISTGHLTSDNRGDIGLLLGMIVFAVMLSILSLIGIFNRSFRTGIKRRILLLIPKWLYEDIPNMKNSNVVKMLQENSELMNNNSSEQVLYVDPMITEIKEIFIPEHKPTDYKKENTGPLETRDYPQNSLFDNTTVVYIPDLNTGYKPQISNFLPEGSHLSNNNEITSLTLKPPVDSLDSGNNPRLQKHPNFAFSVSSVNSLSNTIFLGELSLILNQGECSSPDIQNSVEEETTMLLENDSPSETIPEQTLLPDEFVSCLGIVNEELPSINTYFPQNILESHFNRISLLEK
Summary of the method: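 IC50 values were fitted with a 4-parameter Hill equation to luciferase signal, scaled between IL-23-only wells (0% inhibition) and 30 μM reference inhibitor (100%). The readout was a STAT-inducible reporter in IL-23R/IL-12Rβ1 HEK293 cells, stimulated with added 10 ng/mL IL-23 (EC90) for 5 h at 37° C and developed with BioGlo.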

SMILES | IC50 (IL-23R) [nM] | IC50 [1] [nM]
CC(=O)N[C@H](CCCNC(=N)N)C(=O)N[C@@H]1C(=O)N[C@@H](CC(N)=O)C(=O)N[C@@H]([C@@H](C)O)C(=O)N[C@@H](Cc2c[nH]c3c(C)cccc23)C(=O)N[C@@H](CCCCNC(=O)CCC(=O)N[C@H](CC(=O)O)C[N+](C)(C)C)C(=O)N[C@H](C(=O)N[C@@H](Cc2ccc(OCCN)cc2)C(=O)N[C@@H](Cc2ccc3ccccc3c2)C(=O)NC2(C(=O)N[C@@H](CCCCNC(=O)COCCOCCNC(=O)COCCOCCNC(=O)CC[C@H](NC(=O)CCCCCCCCCCCCCCCCC(=O)O)C(=O)O)C(=O)N[C@@H](CC(N)=O)C(=O)N[C@@H](Cc3cccnc3)C(=O)N(C)CC(N)=O)CCOCC2)C(C)(C)SSC1(C)C [compound 48, MeCO-r-Pen(3)-N-T-7MeW-K(d)-Pen(3)-AEF-2Nal-THP-K(PEG2PEG2gEC18OH)-N-3Pya-Sar-CONH2] (Ac-[dR][Pen]NT[Trp(7-Me)]K([Suc-X2])[Pen][AEF][2Nal][Thp]K([AEEA-AEEA-γGlu-C18 diacid])N[3Pal][Sar]-NH2; disulfide 2-7) | 50 to 500 | < 0.5
C=C(N[C@@H](CC(N)=O)C(=O)N[C@@H](CC)C(C)N(C)CC(=O)N(C)C)[C@H](CCCCN(C)C(C)=O)NC(=O)C1(NC(=O)[C@H](Cc2ccc3ccccc3c2)NC(=O)[C@H](Cc2ccc(OCCCCC[N+](C)(C)C)cc2)NCC2NC(=O)[C@H](CCCCNC(=O)COCCOCCNC(=O)COCCOCCNC(=O)CC[C@H](NC(=O)CCCCCCCCCCCCCCCCCCC(=O)O)C(=O)O)NC(=O)[C@H](CC3=CCc4c(C)cccc43)NC(=O)[C@H]([C@@H](C)O)NC(=O)[C@H](CC(=O)N(C)C)NC(=O)[C@@H](NC(=O)CCOCCOCC[N+](C)(C)C)C(C)(C)SSC2(C)C)CCCCC1 (stereo partly drawn) [compound 127, cPEG3aCO-Pen(3)-N(N(Me)2)-T-7MeW-K(PEG2PEG2gEC20OH)-Pen(3)-TMAPF-2Nal-THP-K(NMeAc)-N-3Pya-Sar-CON(Me)2] | 50 to 500 | 0.5 to 5
CC(=O)N[C@H](CCCNC(=N)N)C(=O)N[C@@H]1C(=O)N[C@@H](CC(N)=O)C(=O)N[C@@H]([C@@H](C)O)C(=O)N[C@@H](Cc2c[nH]c3c(C)cccc23)C(=O)N[C@@H](CCCCNC(=O)COCCOCCNC(=O)COCCOCCNC(=O)CC[C@H](NC(=O)CCCCCCCCCCCCCCC(=O)O)C(=O)O)C(=O)N[C@H](C(=O)N[C@@H](Cc2ccc(OCCCCC[N+](C)(C)C)cc2)C(=O)N[C@@H](Cc2ccc3ccccc3c2)C(=O)NC2(C(=O)N[C@@H](CCC(=O)O)C(=O)N[C@@H](CC(N)=O)C(=O)N[C@@H](Cc3cccnc3)C(=O)N(C)CC(=O)N(C)C)CCOCC2)C(C)(C)SSC1(C)C [compound 92, MeCO-r-Pen(3)-N-T-7MeW-K(PEG2PEG2gEC18OH)-Pen(3)-TMAPF-2Nal-THF-E-N-3Pya-Sar-CONH2] (Ac-[dR][Pen]NT[Trp(7-Me)]K([AEEA-AEEA-γGlu-C16 diacid])[Pen]Y(X1)[2Nal][Thp]EN[3Pal][Sar]-NMe2; disulfide 2-7) | 50 to 500 | < 0.5
CC(=O)NCCCC[C@@H]1NC(=O)[C@H](Cc2c[nH]c3c(C)cccc23)NC(=O)[C@H]([C@@H](C)O)NC(=O)[C@H](CCCCNC(=O)COCCOCCNC(=O)COCCOCCNC(=O)CC[C@H](NC(=O)CCCCCCCCCCCCCCCCC(=O)O)C(=O)O)NC(=O)[C@@H](NC(C)=O)C(C)(C)SSC(C)(C)[C@@H](C(=O)N[C@@H](Cc2ccc(OCCN)cc2)C(=O)N[C@@H](Cc2ccc3ccccc3c2)C(=O)NC2(C(=O)N[C@@H](CCCCNC(=O)CCC(=O)N[C@H](CC(=O)O)C[N+](C)(C)C)C(=O)N[C@@H](CC(N)=O)C(=O)N[C@@H](Cc3cccnc3)C(=O)N(C)CC(N)=O)CCOCC2)NC1=O [compound 15, MeCO-r-Pen(3)-N-T-7MeW-K(PEG2PEG2gEC18OH)-Pen(3)-AEF-2Nal-THP-K(d)-N-3Pya-Sar-CONH2] (Ac-[Pen]K([AEEA-AEEA-γGlu-C18 diacid])T[Trp(7-Me)]K(Ac)[Pen][AEF][2Nal][Thp]K([Suc-X2])N[3Pal][Sar]-NH2; disulfide 1-6) | 50 to 500 | 0.5 to 5

Further lines, with some results ahead:

IC50 (IL-23R) [nM] | SMILES | IC50 [1] [nM]
< 50 | CC(=O)NCCCC[C@@H]1NC(=O)[C@H](Cc2c[nH]c3c(C)cccc23)NC(=O)[C@H]([C@@H](C)O)NC(=O)[C@H](CC(N)=O)NC(=O)[C@@H](NC(=O)[C@@H](CCCCNC(=O)CCOCCOCCOCCOCCOCCOCCOCCOCCOCCOCCOCCOCCNC(=O)CC[C@H](NC(=O)CCCCCCCCCCCCCCCCCCC(=O)O)C(=O)O)NC(C)=O)C(C)(C)SSC(C)(C)[C@@H](C(=O)N[C@@H](Cc2ccc(OCCN)cc2)C(=O)N[C@@H](Cc2ccc3ccccc3c2)C(=O)NC2(C(=O)N[C@@H](CCCCNC(C)=O)C(=O)N[C@@H](CC(N)=O)C(=O)N[C@@H](Cc3cccnc3)C(=O)N(C)CC(N)=O)CCOCC2)NC1=O [compound 104, MeCO-k(PEG12gEC20OH)-Pen(3)-N-T-7MeW-K(Ac)-Pen(3)-AEF-2Nal-THP-K(Ac)-N-3Pya-Ser-CONH2] (Ac-[dK]([PEG12-γGlu-C20 diacid])[Pen]NT[Trp(7-Me)]K(Ac)[Pen][AEF][2Nal][Thp]K(Ac)N[3Pal][Sar]-NH2; disulfide 2-7) | < 0.5
< 50 | CC(=O)NCCCC[C@@H]1NC(=O)[C@H](Cc2c[nH]c3c(C)cccc23)NC(=O)[C@H]([C@@H](C)O)NC(=O)[C@H](CC(N)=O)NC(=O)[C@@H](NC(=O)[C@@H](CCCNC(=N)N)NC(=O)COCCOCCNC(=O)COCCOCCNC(=O)CC[C@H](NC(=O)CCCCCCCCCCCCCCCCC(=O)O)C(=O)O)C(C)(C)SSC(C)(C)[C@@H](C(=O)N[C@@H](Cc2ccc(OCCN)cc2)C(=O)N[C@@H](Cc2ccc3ccccc3c2)C(=O)NC2(C(=O)N[C@@H](CCC(=O)O)C(=O)N[C@@H](CC(N)=O)C(=O)N[C@@H](Cc3cccnc3)C(=O)N(C)CC(N)=O)CCOCC2)NC1=O [compound 60, HOC18gEPEG2PEG2CO-r-Pen(3)-N-T-7MeW-K(Ac)-Pen(3)-AEF-2Nal-THP-E-N-3Pya-Sar-CONH2] ({C18 diacid-γGlu-AEEA-AEEA}-[dR][Pen]NT[Trp(7-Me)]K(Ac)[Pen][AEF][2Nal][Thp]EN[3Pal][Sar]-NH2; disulfide 2-7) | < 0.5
< 50 | CC(=O)NCCCC[C@@H]1NC(=O)[C@H](Cc2c[nH]c3c(C)cccc23)NC(=O)[C@H]([C@@H](C)O)NC(=O)[C@H](CC(N)=O)NC(=O)[C@@H](NC(C)=O)C(C)(C)SSC(C)(C)[C@@H](C(=O)N[C@@H](Cc2ccc(OCCN)cc2)C(=O)N[C@@H](Cc2ccc3ccccc3c2)C(=O)NC2(C(=O)N[C@@H](CCCCNC(C)=O)C(=O)N[C@@H](CC(N)=O)C(=O)N[C@@H](Cc3cccnc3)C(=O)N(C)CC(=O)N[C@@H](CCCCNC(=O)CCOCCOCCOCCOCCOCCOCCOCCOCCOCCOCCOCCOCCNC(=O)CC[C@H](NC(=O)CCCCCCCCCCCCCCCCCCC(=O)O)C(=O)O)C(N)=O)CCOCC2)NC1=O [compound 101, MeCO-Pen(3)-N-T-7MeW-K(Ac)-Pen(3)-AEF-2Nal-THP-K(Ac)-N-3Pya-Sar-K(PEG12gEC20OH)-CONH2] | < 0.5
< 50 | CC(=O)NCCCC[C@@H]1NC(=O)[C@H](Cc2c[nH]c3c(C)cccc23)NC(=O)[C@H]([C@@H](C)O)NC(=O)[C@H](CC(N)=O)NC(=O)[C@@H](NC(=O)[C@@H](CCCNC(=N)N)NC(C)=O)C(C)(C)SSC(C)(C)[C@@H](C(=O)N[C@@H](Cc2ccc(OCCNC(=O)CCC(=O)N[C@H](CC(=O)O)C[N+](C)(C)C)cc2)C(=O)N[C@@H](Cc2ccc3ccccc3c2)C(=O)NC2(C(=O)N[C@@H](CCCCNC(=O)COCCOCCNC(=O)COCCOCCNC(=O)CC[C@H](NC(=O)CCCCCCCCCCCCCCCCC(=O)O)C(=O)O)C(=O)N[C@@H](CC(N)=O)C(=O)N[C@@H](Cc3cccnc3)C(=O)N(C)CC(N)=O)CCOCC2)NC1=O [compound 22, MeCO-r-Pen(3)-N-T-7MeW-K(Ac)-Pen(3)-AEF(d)-2Nal-THP-K(PEG2PEG2gEC18OH)-N-3Pya-Sar-CONH2] (Ac-[dR][Pen]NT[Trp(7-Me)]K(Ac)[Pen][AEF]([Suc-X2])[2Nal][Thp]K([AEEA-AEEA-γGlu-C18 diacid])N[3Pal][Sar]-NH2; disulfide 2-7) | < 0.5
